Reference: patent US9358226B2, “Triarylmethane analogs and their use in treating cancers” (Emory University, priority 2007, dated 2016)

Key:
[1] = molecular target: T1, Nox2 (Homo sapiens, UniProt P04839); experiment: H2O2 production, homovanillic acid assay, Cos-phox cells; format: cell-based; conditions: phorbol 12-myristate 13-acetate stimulated, 1 hour 37° C.
T1 construct: expressed in transfected cells; host or cells: COS-phox cells
T1 sequence (P04839 2-570 limits assumed): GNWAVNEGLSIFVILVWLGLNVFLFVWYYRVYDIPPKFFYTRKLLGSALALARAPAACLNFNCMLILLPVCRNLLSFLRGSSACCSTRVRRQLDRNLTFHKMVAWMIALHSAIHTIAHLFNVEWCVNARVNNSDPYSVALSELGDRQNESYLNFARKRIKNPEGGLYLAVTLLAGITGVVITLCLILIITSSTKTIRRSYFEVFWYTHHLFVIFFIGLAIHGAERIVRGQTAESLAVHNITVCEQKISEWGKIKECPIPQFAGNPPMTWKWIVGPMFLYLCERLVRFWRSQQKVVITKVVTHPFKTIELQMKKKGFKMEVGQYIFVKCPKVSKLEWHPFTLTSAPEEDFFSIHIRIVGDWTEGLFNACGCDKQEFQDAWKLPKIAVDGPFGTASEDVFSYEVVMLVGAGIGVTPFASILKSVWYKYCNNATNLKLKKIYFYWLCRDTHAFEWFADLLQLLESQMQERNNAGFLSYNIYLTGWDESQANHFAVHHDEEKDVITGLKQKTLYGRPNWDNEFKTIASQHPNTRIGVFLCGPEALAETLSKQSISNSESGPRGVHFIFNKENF
T1 sequence (P13498 2-195 partner limits assumed): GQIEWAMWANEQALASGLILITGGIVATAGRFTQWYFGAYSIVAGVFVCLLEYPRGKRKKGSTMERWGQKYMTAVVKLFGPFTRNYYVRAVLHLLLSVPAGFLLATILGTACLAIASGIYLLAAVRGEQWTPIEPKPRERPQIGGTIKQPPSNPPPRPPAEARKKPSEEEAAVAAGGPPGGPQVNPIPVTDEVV
Method: After 1 hour incubation at 37° C., the reaction was stopped and H2O2 production was measured using the homovanillic acid assay. The ability of these drugs to inhibit production of H2O2 is shown as a percentage relative to the untreated control (100%). […] Optimal Nox2 activity requires phorbol 12-myristate 13-acetate stimulation whereas Nox4 activity is constitutive.
H2O2 release was measured using the homovanillic acid assay as described previously (Martyn, 2006). Briefly, 1.5-1.75×10^5 cells/well of a 12-well plate were seeded. The following day, cells were washed once with Hank's balanced salt solution and then preincubated for 15 minutes with either gentian violet (10-20 nM) or brilliant green (0.5-1.0 μM) in 1 ml of media. The cells were then washed once with Hank's balanced salt solution. Gentian violet or brilliant green was added at the same concentrations as in pretreatment to 0.5 ml of homovanillic acid assay solution (100 μM homovanillic acid assay, 4 U/ml horseradish peroxidase in Hank's balanced salt solution with Ca^2+ and Mg^2+) and incubated with the cells for 1 hour at 37° C. Cos-phox cells were additionally stimulated with 0.4 μg/ml phorbol 12-myristate 13-acetate. […] Fluorescence was read on a BioTek Synergy HT (BioTek Instruments Inc., Winooski, Vermont, […].) with an excitation of 320 nm and emission of 440 nm.

[2] = ESR spectrum with superoxide dismutase; conditions: room temperature ESR, conditions as in Li et al.
Method: Li used ESR to confirm the production of NADPH-dependent.O2—by isolated endosomes (Li et al., Molecular and Cellular Biology, January 2006, p. 140-154, 26(1):140-154 (2006)). ESR assays were conducted at room temperature using a Bruker model EMX ESR spectrometer (Bruker). Vesicular fractions from each sample were mixed with the spin trap, 50 mM 5,5-dimethyl-1-pyrroline N-oxide (DMPO), in a total volume of 500 μl of PBS, pH 7.4. This solution contained iminodiacetic acid-chelating resin (10 ml/liter; Sigma-Aldrich). The reaction was initiated by adding NADPH to 100 μM and was immediately placed into the ESR spectrometer. DMPO-hydroxyl radical adduct formation was assayed for 10 min. Instrument settings were as follows: receiver gain, 1×10^6; modulation frequency, 100 kHz; microwave power, 40.14 mW; modulation amplitude, 1.0 G; and sweep rate, 1 G/s.

[3] = test system: P. falciparum D6 (Chloroquine Sensitive); experiment: Malaria model, chloroquine sensitive P. falciparum; format: cell-based; conditions: Plasmodium falciparum, D6; read-out: IC50 (nM) vs P. falciparum D6 (Chloroquine Sensitive)
Method: The compounds were tested in a malaria model using both chloroquine sensitive and multidrug resistant P. falciparum. The malaria model was the same as published in JAC Advance Access published online on Jul. 30, 2008, Journal of Antimicrobial Chemotherapy, doi:10.1093/jac/dkn315, the contents of which are hereby incorporated by reference, and the data is summarized in the table below.
Briefly, the assay involves exposing both chloroquine sensitive and multidrug resistant P. falciparum to the compounds. After one hour of exposure to the highest concentration of the compound, followed by removal of the compound, the growth of all stages of P. falciparum was observed. The reduction in the growth stages was then compared with untreated control parasites. […] The presence of strong inhibition (defined herein as 10% growth) of all parasite stages was evaluated when the parasites were exposed to various concentrations of various compounds.

[4] = test system: bloodstream form of T. brucei; experiment: Bloodstream form of T. brucei, live cells, overnight treatment; format: cell-based
Method: These and other compounds were tested on live cells.
The experiment was conducted with one million cells of the bloodstream form of T. brucei. After over night treatment with different compounds (at concentrations of 50 and 100 μmolar), cells were counted and plotted with controls.

inhibition of Nox2 activity (H2O2 production) [1]: inhibited
IC50 [3]: 12.1 nM
Structure (SMILES): CN(C)c1ccc(C(=C2C=CC(=[N+](C)C)C=C2)c2ccc(N(C)C)cc2)cc1 [Gentian Violet (GV), hexamethyl pararosaniline chloride]
radical formation with superoxide (ESR) [2]: appear to form a radical by reacting with superoxide
IC50 ([4]; Trypanosoma brucei, bloodstream form of T. brucei): < 20 nM
cell survival after over night treatment ([4]; one million cells, 50 and 100 μmolar): All cells died
